Results from patent US20170157135A1 (Novogen Limited, priority 2013, published 2017).

How the values were obtained:
[1] = system: CaCo2 colorectal cancer cells; experiment: Anti-proliferative assay (cell-titre luminescent), CaCo2; type: cell-based; settings: Homo sapiens, Caco-2; CaCo2, 72 hours, luminescence
Outline: (§1)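 Cells seeded at line-specific density, attached 24 h at 37 °C/5% CO2, then exposed to 30, 10, 3, 1, 0.3 and 0.1 μM compound for 72 h. Viability by cell-titre luminescence (30 min), normalized to vehicle control; EC50 from variable-slope sigmoidal nonlinear regression.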

[2] = system: SK-N-SH neuroblastoma cells; experiment: Anti-proliferative assay (cell-titre luminescent), SK-N-SH; type: cell-based; settings: Homo sapiens, 72 hours, luminescence
Outline: as §1

[3] = system: MDA-MB-231 breast cancer cells; experiment: Anti-proliferative assay (cell-titre luminescent), MDA-MB-231; type: cell-based; settings: Homo sapiens; MDA-MB-231, 72 hours, luminescence
Outline: as §1

Tm5NM1 = Tm5NM1 (Homo sapiens, UniProt P06753); experiment: Pyrene-based actin filament depolymerization assay, Tm5NM1-containing actin filaments; type: biochemical; settings: 50 μM compound, p=0.1 vs F-actin alone
Experimental: FIG. 1: Impact of compound 2026 on Tm5NM1-regulated actin-filament depolymerization kinetics. (A and C) Depolymerization time course of 6 μM actin filaments (35% pyrene labelled) diluted 12-fold into F-actin buffer (100 mM NaCl, 10 mM Tris-HCl pH 7.0, 2 mM MgCl2, 1 mM EGTA, 0.2 mM CaCl2, 0.2 mM ATP, 0.5 mM DTT, 0.01% (v/v) NaN3) in the presence or absence of saturating amounts (10 μM) of Tm5NM1. Final concentration of F-actin and Tm5NM1 was 0.5 μM and 0.83 μM respectively. Tm5NM1 was pre-incubated with 50 μM compound 2026 or 1% (v/v) DMSO prior to mixing with F-actin. Depolymerization data is normalized to the initial fluorescence value. (B and D) Initial rates (V0) of depolymerization for F-actin alone or Tm5NM1/F-actin, in the presence of compound 2026. Initial rates of depolymerization were determined from the first 3600 s, fitted to a linear regression model. Data represents mean±SEM, averaged from n>6 replicates.
A brief overview and rationale of the assay is as follows: to promote depolymerization, pyrene-labelled actin filaments were diluted below the critical concentration of the pointed end (0.5 μM, as defined by Pollard et al., 1986). A decline in fluorescence was measured over time as actin monomers dissociate. […]
The depolymerization of F-actin alone and F-actin-coated with Tm5NM1 was then measured in the presence of compound and initial rates of depolymerization were compared. […]

A549 lung (NSLC) cells = experiment: Anti-proliferative assay (cell-titre luminescent), A549; type: cell-based; settings: Homo sapiens; A549, 72 hours, luminescence
Outline: as §1

[4] = system: PC3 prostate cancer cells; experiment: Anti-proliferative assay (cell-titre luminescent), PC3; type: cell-based; settings: PC3, 72 hours, luminescence
Outline: as §1

SK-Mel-28 melanoma cells = experiment: Anti-proliferative assay (cell-titre luminescent), SK-Mel-28; type: cell-based; settings: Homo sapiens; SK-Mel-28, 72 hours, luminescence
Outline: as §1

[5] = system: DU145 prostate cancer cells; experiment: Anti-proliferative assay (cell-titre luminescent), DU145; type: cell-based; settings: Homo sapiens, DU-145; DU145, 72 hours, luminescence
Outline: as §1

Tm5NM1, sequence (P06753 1-248 isoform P06753-2): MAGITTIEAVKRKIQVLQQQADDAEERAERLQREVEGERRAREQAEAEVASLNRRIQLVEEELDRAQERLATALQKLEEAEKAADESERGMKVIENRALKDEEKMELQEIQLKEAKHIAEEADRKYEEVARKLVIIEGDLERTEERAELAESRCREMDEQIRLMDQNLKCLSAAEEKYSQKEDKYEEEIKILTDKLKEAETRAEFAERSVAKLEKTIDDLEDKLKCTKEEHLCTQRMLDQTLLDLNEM

- IC50 [1]: 4.1 µM
- IC50 [2]: 2.5 µM
- IC50 [3]: 4.3 µM
- IC50 (A549 lung (NSLC) cells): 3.4 µM
- IC50 [4]: 5.2 µM
- IC50 (SK-Mel-28 melanoma cells): 1.7 µM
- IC50 [5]: 9.8 µM
Compound: CCN(CC)CCCn1c(C)c(/C=C/C(=O)N2CCN(CCc3cccc(F)c3)CC2)c2cc(OC)ccc21 [Compound 2026, (E)-3-(1-(3-(diethylamino)propyl)-5-methoxy-2-methyl-1H-indol-3-yl)-1-(4-(3-fluorophenethyl)piperazin-1-yl)prop-2-en-1-one]
- Effect on Tm5NM1 function (protection of actin filaments from depolymerization) (Tm5NM1): interacts with and impairs Tm5NM1 function
